Several values for one entry are separate records, joined by “and”; a condition that tells them apart may be missing. Equal values may be shown once. Read-outs that look alike come from different tables or passages of the source.
Experiment: Phase 1 SAD/MAD pharmacokinetics of oral ATI-450 in healthy subjects (incl. 80/120 mg BID extension)
Type: in vivo, human
Conditions: for concentration at 7 day / concentration at 2 day / concentration at 3 day / concentration at 4 day / concentration at 5 day / concentration at 6 day: read-out: Ctrough; for Tmax: read-out: Tmax, median (min, max); for concentration at 2 day: day 2; for concentration at 3 day: day 3; for concentration at 4 day: day 4; for concentration at 5 day: day 5; for concentration at 6 day: day 6; for half-life: read-out: t1/2 (converted)
Procedure: Study Design. […] Single ascending dose (SAD) cohorts. […] Multiple ascending dose (MAD) cohorts. […] Blood Sampling and Bioanalysis. Two-milliliter blood samples were collected for PK analysis. […] The lower limit of quantification was 0.500 ng/mL. Pharmacokinetics. […] Bioanalysis Assay of ATI-450. Sample processing was performed by protein precipitation using a 50.0-μL sample volume. […] A triple quadrupole 6500 mass spectrometer equipped with a turbo-ion spray source was used for detection in positive ion mode. […] A linear calibration curve ranging from 0.500 to 500 ng/mL with a 1/x^2 weighting factor was used. The method was minimally required to have intra- and inter-day precision (coefficients of variation) for pooled plasma quality control samples of ≤15% except at the lower limit of quantitation, where ≤20% was acceptable. The calculated concentrations (both inter- and intra-day) were required to be within 15% of nominal at all concentrations except the lower limit of quantitation, where up to 20% deviation from nominal was acceptable. The precision and accuracy of the method exceeded these minimum requirements for assay validation.

[1] = 100 mg single dose, fed vs fasted
[2] = both sexes, human, plasma, oral, 10 mg, 10 mg BID
[3] = both sexes, human, plasma, oral, 10 mg, 10 mg BID, day 7
[4] = both sexes, human, plasma, oral, 30 mg, 30 mg BID
[5] = both sexes, human, plasma, oral, 30 mg, 30 mg BID, day 7
[6] = both sexes, human, plasma, oral, 50 mg, 50 mg BID, day 1
[7] = both sexes, human, plasma, oral, 50 mg, 50 mg BID
[8] = both sexes, human, plasma, oral, 50 mg, 50 mg BID, day 7

SMILES: Cc1cnc(-c2ccnc(C(C)(C)O)n2)cc1-n1c(C)cc(OCc2ncc(F)cc2F)c(Cl)c1=O (single isomer, unassigned) [ATI-450, 3-chloro-4-((3,5-difluoropyridin-2-yl)methoxy)-2′-(2-(2-hydroxypropan-2-yl)pyrimidin-4-yl)-5′,6-dimethyl-2H-[1,4′-bipyridin]-2-one]
- AUC(0-t) (10 mg BID, day 7): 364.6 ± 110.7 ng·h/mL
- AUCtau (10 mg BID, day 7): 287.8 ± 81.5 ng·h/mL
- CLss/F (10 mg BID, day 7): 37.4 ± 10.9 L/h
- Cavg (10 mg BID, day 7): 24.0 ± 6.8 ng/mL
- Cmin (10 mg BID, day 7): 8.1 ± 3.1 ng/mL
- Ctrough (10 mg BID, day 7): 11.8 ± 5.2 ng/mL
- Tmax, median (min, max) (10 mg BID, day 7): 2.0 (2.0-2.0) h
- Vss/F (10 mg BID, day 7): 517.4 ± 203.2 L
- AUC(0-t) (30 mg BID, day 7): 1204.6 ± 309.1 ng·h/mL
- AUCtau (30 mg BID, day 7): 908.9 ± 163.1 ng·h/mL
- CLss/F (30 mg BID, day 7): 33.9 ± 5.9 L/h
- Cavg (30 mg BID, day 7): 75.6 ± 13.4 ng/mL
- Cmin (30 mg BID, day 7): 28.8 ± 10.7 ng/mL
- Ctrough (30 mg BID, day 7): 41.1 ± 18.3 ng/mL
- Tmax, median (min, max) (30 mg BID, day 7): 2.0 (1.0-4.0) h
- Vss/F (30 mg BID, day 7): 483.1 ± 85.1 L
- t1/2 (30 mg BID, day 7): 10.3 ± 3.2 h
- Tmax, median (min, max) (50 mg BID, day 1): 2.0 (2.0-4.0) h
- AUC0-12 (50 mg BID, day 7): 1507.8 (659.9) ng · h/mL
- CLss/F (50 mg BID, day 7): 37.3 ± 11.7 L/h
- Cavg (50 mg BID, day 7): 125.6 ± 55.0 ng/mL
- Cmax (50 mg BID, day 7): 219.0 (77.8) ng/mL
- Cmin (50 mg BID, day 7): 58.7 ± 32.8 ng/mL
- Ctrough (50 mg BID, day 7): 87.9 ± 49.4 ng/mL
- Tmax, median (min, max) (50 mg BID, day 7): 3.0 (1.0, 4.0) h and 3.0 (1.0-4.0) h
- CLss/F (80 mg BID, day 7): 33.2 ± 7.6 L/h
- Ctrough (80 mg BID, day 7): 158.3 ± 60.3 ng/mL
- AUC0-∞ higher in the fed state [1]: about 24%
- Cmax lower in the fed state [1]: about 9%
- CLss/F (120 mg BID, day 7): 52.3 ± 17.4 L/h
- Ctrough (120 mg BID, day 7): 155.8 ± 93.1 ng/mL
- accumulation after multiple dosing (10-50 mg BID): up to 1.4 fold
- terminal half-life (mean t1/2), range over cohorts (MAD cohorts 10-50 mg BID, day 7): 9 to 12 h
- concentration at 7 day (both sexes, human, plasma, oral, 10 mg BID, day 7): 11.8 ng/mL
- AUC(0-t) (both sexes, human, plasma, oral, 10 mg, 10 mg BID, day 1, read-out: AUC0-12): 200 ng·h/mL
- Cmax (both sexes, human, plasma, oral, 10 mg, 10 mg BID, day 1, read-out: Cmax): 34.3 ng/mL
- Tmax (both sexes, human, plasma, oral, 10 mg, 10 mg BID, day 1): 2 h
- concentration at 2 day [2]: 10.1 ± 4.7 ng/mL
- concentration at 3 day [2]: 9.8 ± 4.5 ng/mL
- concentration at 4 day [2]: 9.2 ± 5 ng/mL
- concentration at 5 day [2]: 9.6 ± 4.7 ng/mL
- concentration at 6 day [2]: 10.7 ± 4.9 ng/mL
- AUC(0-t) (both sexes, human, plasma, oral, 10 mg, 10 mg BID, day 7, read-out: AUC0-12): 288 ng·h/mL
- Cmax (both sexes, human, plasma, oral, 10 mg, 10 mg BID, day 7, read-out: Cmax): 51.8 ng/mL
- Tmax [3]: 2 h
- half-life [3]: 9.6 h
- concentration at 7 day (both sexes, human, plasma, oral, 30 mg BID, day 7): 41.1 ng/mL
- AUC(0-t) (both sexes, human, plasma, oral, 30 mg, 30 mg BID, day 1, read-out: AUC0-12): 681 ng·h/mL
- Cmax (both sexes, human, plasma, oral, 30 mg, 30 mg BID, day 1, read-out: Cmax): 126 ng/mL
- Tmax (both sexes, human, plasma, oral, 30 mg, 30 mg BID, day 1): 2 h
- concentration at 2 day [4]: 37.5 ± 18.8 ng/mL
- concentration at 3 day [4]: 44.1 ± 29.3 ng/mL
- concentration at 4 day [4]: 36.8 ± 14.9 ng/mL
- concentration at 5 day [4]: 34.9 ± 13.8 ng/mL
- concentration at 6 day [4]: 38.9 ± 16.2 ng/mL
- AUC(0-t) (both sexes, human, plasma, oral, 30 mg, 30 mg BID, day 7, read-out: AUC0-12): 909 ng·h/mL
- Cmax (both sexes, human, plasma, oral, 30 mg, 30 mg BID, day 7, read-out: Cmax): 146 ng/mL
- Tmax [5]: 2 h
- half-life [5]: 10.3 h
- concentration at 7 day (both sexes, human, plasma, oral, 50 mg BID, day 7): 87.9 ng/mL
- AUC [6]: 1180 ± 340 ng·h/mL
- AUC(0-t) (both sexes, human, plasma, oral, 50 mg, 50 mg BID, day 1, read-out: AUC0-12): 1180 ng·h/mL
- AUC(0-t) (both sexes, human, plasma, oral, 50 mg, 50 mg BID, day 1, read-out: AUC0-t): 1180 ± 340 ng·h/mL
- Cmax (both sexes, human, plasma, oral, 50 mg, 50 mg BID, day 1, read-out: Cmax): 187 ng/mL
- Tmax [6]: 2 h
- concentration at 2 day [7]: 84 ± 40.6 ng/mL
- concentration at 3 day [7]: 80.6 ± 44.2 ng/mL
- concentration at 4 day [7]: 81.5 ± 49.6 ng/mL
- concentration at 5 day [7]: 81.5 ± 43.9 ng/mL
- concentration at 6 day [7]: 76.4 ± 38.6 ng/mL
- AUC [8]: 1510 ± 660 ng·h/mL
- AUC(0-t) (both sexes, human, plasma, oral, 50 mg, 50 mg BID, day 7, read-out: AUC0-12): 1510 ng·h/mL
- AUC(0-t) (both sexes, human, plasma, oral, 50 mg, 50 mg BID, day 7, read-out: AUC0-24, total daily exposure calculated as AUC0-12 × 2): 3040 ng·h/mL
- AUC(0-t) (both sexes, human, plasma, oral, 50 mg, 50 mg BID, day 7, read-out: AUC0-t): 2260 ± 1070 ng·h/mL
- Cmax (both sexes, human, plasma, oral, 50 mg, 50 mg BID, day 7, read-out: Cmax): 219 ng/mL
- Tmax [8]: 3 h
- half-life [8]: 11.6 h
- concentration at 7 day (both sexes, human, plasma, oral, 80 mg BID, day 7): 158 ng/mL
- AUC (both sexes, human, plasma, oral, 80 mg, 80 mg BID, day 1): 1690 ± 454 ng·h/mL
- AUC(0-t) (both sexes, human, plasma, oral, 80 mg, 80 mg BID, day 1, read-out: AUC0-t): 1680 ± 451 ng·h/mL

— patent US11844801B2, “Oral compositions of MK2 pathway inhibitor for treatment of immune conditions” (priority 2020, dated 2023)
